These results are taken from article PMC9502272, “A Metabolomics Approach for Predicting OATP1B-Type Transporter-Mediated Drug–Drug Interaction Liabilities” (Pharmaceutics, 2022).

Details of series [1]: method as in ref PMIDs of Table S2 (18321482, 35456528, 28612269, 10997930, 27796539, 23299792, 11129729, 22808947, 12844327). As to conditions: ref PMIDs of Table S2 (18321482, 35456528, 28612269, 10997930, 27796539, 23299792, 11129729, 22808947, 12844327); cited from earlier work.
Series [2] relates to OATP1B. Put plainly: Clinical study: OATP1B biomarkers in patients receiving cabazitaxel. The series is classed as in vivo, human. As to conditions: cabazitaxel 1 h i.v. infusion up to 25 mg/m^2.
Description: Samples from patients with solid tumors were collected from 3 clinical studies conducted in accordance with the principles of the Declaration of Helsinki, and all study protocols were approved by Institutional Review Boards at either the National Cancer Institute (Bethesda, MD, USA) or the Erasmus Medical Center Cancer Institute (Rotterdam, The Netherlands). All patients provided written informed consent for their blood samples and medical information to be used for research purposes.
An Accucore aQ column (50 × 2.1 mm, dp = 2.6 μm; Thermo Fisher Scientific) was protected by a C18 AQUASIL guard cartridge (2.1 mm × 10 mm, dp = 3 μm; Thermo Fisher Scientific). The injection volume of sample was 5.0 μL. The temperature of the autosampler rack was 4 °C, and the temperature of the column was maintained at 20 °C. The mobile phase was composed of solvent A (2 mmol ammonium acetate in water) and solvent B (100% methanol), and the total run time was 4.6 min. The gradient conditions were as follows: 0–0.5 min, 45% B; 0.5–2.0 min, 45 to 90%, 2.0–4.0 min, 90% B; 4.0–4.6 min, 45% B, delivered at a flow rate of 0.4 mL/min. The MS assay setting with the positive voltage applied to the ESI capillary was set at 3791 V, and the capillary temperatures was 335 °C with a vaporizer temperature of 350 °C. […] The lower limit of quantitation (LLOQ) for both analytes was determined to be 0.5 ng/mL. […]
Series [3] has as its target T1, OATP1B-type transporters (Oatp1b2) (Mus musculus, UniProt Q9JJL3).
T1 construct: was performed in wild-type mice and Oatp1b2(−/−) mice; from tissue; host or cells: living wild-type mice (DBA/1LacJ or FVB background); hepatic transporter in vivo
T1 sequence (Q9JJL3 1-689): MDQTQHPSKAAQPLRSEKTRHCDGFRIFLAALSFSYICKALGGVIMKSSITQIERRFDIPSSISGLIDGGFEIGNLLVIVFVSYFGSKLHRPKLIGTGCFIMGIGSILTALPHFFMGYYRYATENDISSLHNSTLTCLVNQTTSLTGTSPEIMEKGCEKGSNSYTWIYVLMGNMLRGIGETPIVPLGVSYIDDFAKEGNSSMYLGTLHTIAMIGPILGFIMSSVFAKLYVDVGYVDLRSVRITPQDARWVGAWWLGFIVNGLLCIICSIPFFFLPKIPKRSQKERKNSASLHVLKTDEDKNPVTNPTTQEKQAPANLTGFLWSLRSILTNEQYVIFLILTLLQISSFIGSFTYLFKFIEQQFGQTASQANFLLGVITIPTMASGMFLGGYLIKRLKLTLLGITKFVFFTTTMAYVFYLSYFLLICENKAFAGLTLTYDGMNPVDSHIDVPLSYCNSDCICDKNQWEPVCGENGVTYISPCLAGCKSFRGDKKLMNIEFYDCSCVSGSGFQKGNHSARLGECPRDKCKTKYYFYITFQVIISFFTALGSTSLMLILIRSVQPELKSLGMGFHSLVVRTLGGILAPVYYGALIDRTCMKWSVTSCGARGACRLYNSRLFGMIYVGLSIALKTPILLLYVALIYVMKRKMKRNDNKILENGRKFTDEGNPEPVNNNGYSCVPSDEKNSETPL
The experiment in a line: Murine pharmacokinetic study: influence of OATP1B inhibitors on plasma CDCA-24G in wild-type mice. The series is classed as in vivo. As to conditions: rifampin 20 mg/kg i.v. or paclitaxel 10 mg/kg i.v.
Protocol: In these experiments, serial whole blood samples were collected in heparinized tubes immediately prior to drug administration (pre-dose) and at 0.25, 0.5, 1, 2, and 4 h after administration from the submandibular vein for the initial three time-points, from the retro-orbital sinus vein for the subsequent two time-points, and by cardiac puncture at the terminal time-point. Whole blood samples were centrifuged at 11,000 rpm for 5 min; then, the plasma supernatants were collected and stored at −80 °C until analysis by a validated method based on LC-MS/MS.
An Accucore aQ column (50 × 2.1 mm, dp = 2.6 μm; Thermo Fisher Scientific) was protected by a C18 AQUASIL guard cartridge (2.1 mm × 10 mm, dp = 3 μm; Thermo Fisher Scientific). The injection volume of sample was 5.0 μL. The temperature of the autosampler rack was 4 °C, and the temperature of the column was maintained at 20 °C. The mobile phase was composed of solvent A (2 mmol ammonium acetate in water) and solvent B (100% methanol), and the total run time was 4.6 min. […]
(§1) Pharmacokinetic parameters were derived from non-compartmental analysis using Phoenix WinNonlin version 8.0 (Certara, Princeton, NJ, USA). The peak plasma concentration (Cmax) was determined by visual inspection of the data from the concentration–time curves. […]

In another series the test system is OATP1B3. Also noted: method as in ref PMIDs of Table S2 (18321482, 35456528, 28612269, 10997930, 11129729, 22808947, 12844327). As to conditions: ref PMIDs of Table S2 (18321482, 35456528, 28612269, 10997930, 11129729, 22808947, 12844327); cited from earlier work.
Series [4] relates to OATP1B. The settings on record: patients, paclitaxel (Taxol) 1 h i.v. infusion, 50 or 100 mg/m^2; dose-dependent.
Protocol: An Accucore aQ column (50 × 2.1 mm, dp = 2.6 μm; Thermo Fisher Scientific) was protected by a C18 AQUASIL guard cartridge (2.1 mm × 10 mm, dp = 3 μm; Thermo Fisher Scientific). The injection volume of sample was 5.0 μL. The temperature of the autosampler rack was 4 °C, and the temperature of the column was maintained at 20 °C. The mobile phase was composed of solvent A (2 mmol ammonium acetate in water) and solvent B (100% methanol), and the total run time was 4.6 min. The gradient conditions were as follows: 0–0.5 min, 45% B; 0.5–2.0 min, 45 to 90%, 2.0–4.0 min, 90% B; 4.0–4.6 min, 45% B, delivered at a flow rate of 0.4 mL/min. The MS assay setting with the positive voltage applied to the ESI capillary was set at 3791 V, and the capillary temperatures was 335 °C with a vaporizer temperature of 350 °C. Argon was used as the collision gas at a pressure of 1.5 mTorr. […] The lower limit of quantitation (LLOQ) for both analytes was determined to be 0.5 ng/mL. […]
as §1
For a further series, the target named is T2, OATP1B1 (Homo sapiens, UniProt Q9Y6L6).
T2 construct: expressed in transfected cells; host or cells: HEK293 (ATCC)
T2 sequence (Q9Y6L6 1-691): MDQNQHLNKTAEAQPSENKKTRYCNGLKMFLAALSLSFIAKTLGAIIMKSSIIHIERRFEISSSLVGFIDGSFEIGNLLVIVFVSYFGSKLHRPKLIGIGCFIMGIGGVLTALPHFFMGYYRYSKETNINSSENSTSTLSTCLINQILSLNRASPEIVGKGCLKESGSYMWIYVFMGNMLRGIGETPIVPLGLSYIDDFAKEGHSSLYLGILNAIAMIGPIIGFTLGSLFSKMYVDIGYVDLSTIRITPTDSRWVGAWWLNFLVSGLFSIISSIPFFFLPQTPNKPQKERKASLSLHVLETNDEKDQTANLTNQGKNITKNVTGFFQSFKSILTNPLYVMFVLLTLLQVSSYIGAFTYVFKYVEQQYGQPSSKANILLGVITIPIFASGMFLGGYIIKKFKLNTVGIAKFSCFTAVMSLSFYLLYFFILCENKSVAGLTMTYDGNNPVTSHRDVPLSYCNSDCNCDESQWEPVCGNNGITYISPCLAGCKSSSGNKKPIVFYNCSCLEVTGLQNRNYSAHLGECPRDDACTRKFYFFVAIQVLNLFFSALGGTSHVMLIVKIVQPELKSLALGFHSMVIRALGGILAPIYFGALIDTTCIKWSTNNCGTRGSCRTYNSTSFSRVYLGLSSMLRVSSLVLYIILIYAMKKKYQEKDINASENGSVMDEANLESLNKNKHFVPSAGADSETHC
Also noted: method as in ref PMIDs of Table S2 (18321482, 35456528, 28612269, 10997930, 11129729, 22808947, 12844327). As to conditions: ref PMIDs of Table S2 (18321482, 35456528, 28612269, 10997930, 11129729, 22808947, 12844327); cited from earlier work.

As a reminder, the Cmax is the highest concentration seen after dosing. One may read the IC50 as the concentration needed to halve the response being measured.

Like-named read-outs stand apart in the source and are kept apart here.

As to `CO[C@H]1C(=O)[C@]2(C)[C@@H](OC)C[C@H]3OC[C@@]3(OC(C)=O)[C@H]2[C@H](OC(=O)c2ccccc2)[C@]2(O)C[C@H](OC(=O)[C@H](O)[C@@H](NC(=O)OC(C)(C)C)c3ccccc3)C(C)=C1C2(C)C` [Cabazitaxel, cabazitaxel], the Cmax in series [1] is 0.193 µM. In the series with OATP1B [2], the “Effect on plasma levels of CDCA-24G” value was “not associated with elevated plasma levels” and the “Effect on plasma levels of GCDCA-S” value is “not associated with elevated plasma levels”.
As for `CC(=O)O[C@H]1C(=O)[C@@]2(C)[C@H]([C@H](OC(=O)c3ccccc3)[C@]3(O)C[C@H](OC(=O)[C@H](O)[C@@H](NC(=O)c4ccccc4)c4ccccc4)C(C)=C1C3(C)C)[C@]1(OC(C)=O)CO[C@@H]1C[C@@H]2O` [Paclitaxel, paclitaxel], in series [1], the Cmax was 9.6 µM. In addition, the “Effect on circulating levels of CDCA-24G” value in series [3] was “transient, statistically significant increase”. Moreover, the IC50 in the series on OATP1B3 is 0.5 µM. Also, the “Effect on plasma levels of CDCA-24G” value in the series on OATP1B [4] is given as “elevated”.
In the case of `CO[C@H]1/C=C/O[C@@]2(C)Oc3c(C)c(O)c4c(O)c(c(/C=N/N5CCN(C)CC5)c(O)c4c3C2=O)NC(=O)/C(C)=C\C=C\[C@H](C)[C@H](O)[C@@H](C)[C@@H](O)[C@@H](C)[C@H](OC(C)=O)[C@@H]1C` [Rifampin, rifampin], the Cmax in series [1] is 29 µM. Moreover, the “Effect on circulating levels of CDCA-24G” value in series [3] is reported as “transient, statistically significant increase”. The concentration for half-maximal inhibition (IC50) is 2.6 µM in the series with OATP1B3 and 1.5 µM on OATP1B1.
